Experimental data taken from PMC3853684 (Scientific Reports, 2013).
Each block holds one compound with its values, some of them ahead of it.

Legend:
[1] = cited from earlier work
[2] = monkeys, starting level, cervical puncture; cited from earlier work
[3] = Plasma OXT concentration after intranasal OXT; format: in vivo; conditions: male, human, inhaled or intranasal, 24 IU
[4] = intravenous injection, animal-based work; cited from earlier work
[5] = intranasal 16 or 24 IU; cited from earlier work
[6] = cited from earlier work; remark: listed apart in the source
[7] = humans, cited from earlier work

Tmax [3]: 15 min
level at 1.5 h ([3]; SD): 0.0123 ± 0.006 ng/mL
Compound: CC[C@H](C)[C@@H]1NC(=O)[C@H](Cc2ccc(O)cc2)NC(=O)[C@@H](N)CSSC[C@@H](C(=O)N2CCC[C@H]2C(=O)N[C@@H](CC(C)C)C(=O)NCC(N)=O)NC(=O)[C@H](CC(N)=O)NC(=O)[C@H](CCC(N)=O)NC1=O [OXT, oxytocin]
increase of half-life in CSF (compared to plasma) [1]: 30–40 fold
OXT CSF concentration before increase [2]: around 20 pg/ml
fraction of the peptide that crossed the blood-brain barrier (BBB) [4]: approximately 0.01%
duration of increase in OXT saliva concentrations [5]: up to 7 h
time of increases in OXT plasma concentrations ([6]; intranasal 24 IU): 30 to 40 min
time of peak elevated OXT plasma concentrations ([6]; intranasal OXT 30 IU, three male volunteers): 10 to 40 min

Compound: arginine vasopressin [arginine vasopressin (AVP)]
time to increase in CSF concentrations ([7]; intranasal 40 IU): up to 60 min
increase in CSF concentrations (fold) ([7]; intranasal 80 IU): up to 4 fold
time to significant increase in CSF concentrations ([7]; intranasal 80 IU): 10 min
